Results published in patent publication EP1944022A1, “PHARMACEUTICAL COMPOSITIONS COMBINING […] ANTICONVULSANT AGENTS FOR THE TREATMENT OF CHRONIC AND ACUTE PAIN” (ESPINOZA ABDALA, Leopoldo de Jesús, priority 2005, dated 2007).

Tested on: nociceptive pain
Assay: uric acid-induced knee joint inflammation and pain in rats, recovery of Functionality Ratio (AUC over 4 hours)
Format: in vivo, female Wistar rats
Details: rat
Procedure: An experimental preclinical study was performed that compares the analgesic effect of tramadol and gabapentin administered individually and in combination, using female Wistar rats weighting from 160 to 180 g, which were intraarticularly injected 0.05 ml uric acid suspended in mineral oil into knee joint of left hindleg under anesthesia in order to cause inflammation and pain. An electrode was connected at the plantar region of hindlegs. The rats were placed in a roller of 30 cm of diameter rotating at 4 rpm during two-minute periods. The time of contact between each electrode of the rats' hindlegs and the roller was registered. The data are expressed as Functionality Ratio (FR). […] At the same time the medicaments, alone or in combination, were administered, and the Functionality Ratio every 30 minutes for 4 hours was determined. […]
Doses used for the combination were 3.16, 5.62, 10.0 or 17.78, 31.62, 56.23, 100.0 mg/kg of tramadol and those used for gabapentin were 31.6, 56.2, 100.0, 177.8, 316.2 mg/kg. Thus, the possible synergistic interaction (a total of 24 combinations) was analyzed.
The synergism between gabapentin and tramadol was calculated with the synergistic interaction surface analysis and an isobolographic method (Tallarida et al., 1989). The area under the curve (AUC) was calculated for each of the combinations and for each of the components.

COc1cccc(C2(O)CCCCC2CN(C)C)c1 (mixture of isomers) [tramadol, (±) cis-2-[(dimethylamino)methyl]-1-(3-metoxyphenyl) cyclohexanol]
total analgesic effect, area under the curve (AUC) (in vivo): 207.7 ± 24.7 area units

NCC1(CC(=O)O)CCCCC1 [Gabapentin]
total analgesic effect, area under the curve (AUC) (gabapentin alone 316.2 mg/kg, 4-hours observation period): 121.5 ± 30.3 area units
